Results on 2 compounds are retold here after US4578383A, “CL 1565 antibiotic compounds” (priority 1984, dated 1986).

Like-named read-outs stand apart in the source and are kept apart here.

The subject of the data set is P388 Lymphatic Leukemia. It is filed as in vivo, Mice. An excerpt:
The test method used is based on that described in Cancer Chemother. Reports 3:1-87 (part 3), 1972.

Where [1] appears, read: 3.1 mg/kg/day (CL 1565-T and CL 1565-B tables).
[2] abbreviates: 6.3 mg/kg/day (CL 1565-T and CL 1565-B tables).
Setting [3] is: 12.5 mg/kg/day (CL 1565-T and CL 1565-B tables).

Take `CC=CC=CC=CC(O)CC(OP(=O)(O)O)C(C)(O)C=CC1CC=CC(=O)O1` (centres unmarked) [CL 1565-B]: the “T/C × 100” value by setting is: under setting [1], 129; under setting [2], 142; under setting [3], 178. Where the note is “25.0 mg/kg/day (CL 1565-B table)”, the “T/C × 100 (toxicity noted)” value is given as “Toxic”.
On to `CC(O)(C=CC1OC(=O)C=CC1O)C(CC(O)C=CC=CC=CCO)OP(=O)(O)O` (centres unmarked) [CL 1565-T], for which the “T/C × 100” value under setting [1] is recorded as 147, the “T/C × 100” value under setting [2] was found to be 142, the “T/C × 100” value under setting [3] is listed as 147 and the “T/C × 100” value (25.0 mg/kg/day (CL 1565-T table)) was 157.
